The supplement of paper PMC5844555

Assays:
Assay in all cases: 3' UTR reporter interaction score (median-centred robust z-score of log2 firefly/Renilla activity); higher = less repression of the 3' UTR reporter
Details in all cases: HEK293T; 48 h
BRCA2 = system: BRCA2
Outline: (§1)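 Using DharmaFECT Duo, HEK293T cells (10,000/well, 96-well plates) were co-transfected with 2.5 pmol miRNA mimic, 100 ng firefly luc2P reporter containing the gene's 3' UTR and 20 ng Renilla pRL-TK control, and dual-luciferase activity was read 48 h later. The interaction score is the log firefly/Renilla ratio as a per-plate robust z-score (median, median absolute deviation), median-centred per miRNA, averaged over at least two independent screens; lower, more negative values indicate interaction.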

EZH2 = system: EZH2
Outline: as §1

FBXW7 = system: FBXW7
Outline: as §1

HRAS = system: HRAS
Outline: as §1

MYB = system: MYB
Outline: as §1

MYCN = system: MYCN
Outline: as §1

MYC = system: MYC
Outline: as §1

MYT1L = system: MYT1L
Outline: as §1

NOTCH1 = system: NOTCH1
Outline: as §1

PHF6 = system: PHF6
Outline: as §1

PHOX2B = system: PHOX2B
Outline: as §1

RB1 = system: RB1
Outline: as §1

TP53 = system: TP53
Outline: as §1

ZEB2 = system: ZEB2
Outline: as §1

Row | Sequence | 3' UTR reporter interaction score (BRCA2) | 3' UTR reporter interaction score (EZH2) | 3' UTR reporter interaction score (FBXW7) | 3' UTR reporter interaction score (HRAS) | 3' UTR reporter interaction score (MYB) | 3' UTR reporter interaction score (MYCN) | 3' UTR reporter interaction score (MYC) | 3' UTR reporter interaction score (MYT1L) | 3' UTR reporter interaction score (NOTCH1) | 3' UTR reporter interaction score (PHF6) | 3' UTR reporter interaction score (PHOX2B) | 3' UTR reporter interaction score (RB1) | 3' UTR reporter interaction score (TP53) | 3' UTR reporter interaction score (ZEB2)
1 | UAUUGCACUUGUCCCGGCCUG | 1.75 | -0.214 | -2.99 | 0.114 | -1.54 | 1.23 | 0.754 | -1.81 | -0.177 | 0.0608 | 0.517 | 1.41 | 0.235 | -2.03
2 | UUCAAGUAAUCCAGGAUAGGC | 1.36 | -4.57 | 1.99 | -0.41 | 1.11 | -0.368 | -1.71 | 1.27 | 1.68 | -0.0329 | -0.534 | -0.662 | 0.423 | -0.465
3 | ACUUCACCUGGUCCACUAGCCGU | -0.412 | -0.456 | -2.1 | -0.736 | 0.743 | 0.0552 | -0.039 | 1.42 | 0.897 | 0.576 | -0.0718 | 1.16 | -0.237 | 0.694
4 | ACAAAGUGCUUCCCUUUAGAGU | -0.366 | -0.0342 | 0.628 | 0.332 | 0.129 | -0.183 | -0.239 | -0.45 | 0.795 | -0.537 | 1.29 | -0.344 | -0.415 | 0.377
5 | CCCAGAUAAUGGCACUCUCAA | 0.00154 | 0.0427 | -0.29 | 0.111 | 0.409 | -0.998 | 0.82 | 0.0372 | -0.834 | -0.296 | 0.745 | -2.36 | -0.804 | 0.427
6 | AUCGCUGCGGUUGCGAGCGCUGU | -2.3 | -1.15 | 0.301 | -1.73 | 1.13 | 0.0647 | 0.0173 | 1.61 | -0.324 | 2.14 | 2.38 | -0.265 | -0.536 | 0.885
7 | AUCAUAGAGGAAAAUCCACGU | 0.121 | 0.733 | 0.0331 | -1.11 | -0.185 | 0.335 | -0.578 | 0.0345 | 0.241 | 0.424 | 0.628 | -0.168 | 0.405 | -0.144
8 | UCAGGCUCAGUCCCCUCCCGAU | 0.841 | 0.0569 | 0.573 | -0.122 | -1.88 | -0.567 | 0.0353 | -0.304 | -0.181 | 0.0613 | 0.106 | 0.0824 | 0.0121 | 1.33
9 | UCCCUGAGACCCUUUAACCUGUG | 0.772 | 1.1 | -0.449 | 1.12 | -0.228 | -0.334 | 0.131 | 0.364 | -0.719 | 1.62 | -2.78 | 0.0838 | -3.91 | 0.152
10 | UGGUUGACCAUAGAACAUGCGC | -0.794 | -1.23 | -0.743 | -0.568 | 2.68 | 1.49 | -0.769 | 3.19 | 2.11 | 0.184 | 1.74 | 3.51 | -0.14 | 2.61
11 | GCGACCCACUCUUGGUUUCCA | -0.537 | 0.786 | 0.92 | -0.85 | 0.396 | 0.0444 | -0.5 | -0.645 | 0.563 | -1.86 | 0.84 | -2.3 | 0.384 | -0.694
12 | UGCCUGGGUCUCUGGCCUGCGCGU | -0.375 | -0.794 | -2.61 | -1.95 | 0.325 | -0.0821 | 0.101 | -0.227 | 0.3 | 0.782 | -0.846 | -2.47 | 0.35 | 0.387
13 | AACAUUCAACGCUGUCGGUGAGU | 0.243 | -0.146 | -0.842 | -0.301 | 0.057 | -0.12 | 0.478 | -0.0848 | 0.193 | -0.891 | -0.00434 | 0.404 | 0.784 | -0.18
14 | GUGAGUCUCUAAGAAAAGAGGA | 0.654 | -0.0137 | 1.15 | -1.03 | -1.86 | -0.777 | -0.241 | 0.22 | 0.287 | 0.947 | -1.54 | -0.543 | 1.06 | 0.201
15 | GUUGUGUCAGUUUAUCAAAC | -0.269 | 0.353 | -0.0228 | 0.822 | 0.442 | 0.0505 | 0.0323 | -0.86 | -0.822 | -1.91 | -0.364 | -1.51 | 0.224 | -0.154
16 | GUGUGUGGAAAUGCUUCUGC | -2.78 | 1.67 | -0.236 | 0.713 | 1.87 | 1.7 | -0.259 | -1.13 | -0.133 | 1.54 | -1.13 | 1.07 | -0.707 | -1.28
17 | UGCACCAUGGUUGUCUGAGCAUG | 0.899 | 0.00438 | -1.84 | -0.315 | 0.379 | -5.44 | -0.0708 | 0.0254 | -0.682 | 0.727 | -1.01 | 0.168 | 0.617 | -1.45

Row | Sequence | 3' UTR reporter interaction score (BRCA2) | 3' UTR reporter interaction score (EZH2) | 3' UTR reporter interaction score (FBXW7) | 3' UTR reporter interaction score (HRAS) | 3' UTR reporter interaction score (MYB) | 3' UTR reporter interaction score (MYCN) | 3' UTR reporter interaction score (MYC) | 3' UTR reporter interaction score (MYT1L) | 3' UTR reporter interaction score (NOTCH1) | 3' UTR reporter interaction score (PHF6) | 3' UTR reporter interaction score (PHOX2B) | 3' UTR reporter interaction score (RB1) | 3' UTR reporter interaction score (TP53) | 3' UTR reporter interaction score (ZEB2)
18 | GGCUGGCUCGCGAUGUCUGUUU | -2.13 | -0.172 | 0.4 | -0.0445 | -2.48 | 0.967 | -0.237 | 1.15 | -0.649 | 0.0685 | 0.166 | 0.183 | 0.4 | 0.922
19 | GAAGGCGCUUCCCUUUAGAGC | 0.0383 | -1.42 | 0.412 | -1.63 | 0.182 | 0.218 | -0.899 | 0.364 | -0.268 | 0.189 | 1.35 | 0.388 | -0.514 | 0.676
20 | AGGGUAAGCUGAACCUCUGAU | 0.0158 | -0.149 | 2.4 | -0.74 | 0.366 | 1.35 | -0.643 | 0.432 | -0.542 | -0.384 | 1.64 | -1.03 | 0.182 | -0.308
21 | AAAGCGCUUCCCUUUGCUGGA | -0.221 | 0.396 | 0.199 | -0.256 | -0.491 | -0.601 | -0.245 | 0.0314 | 0.538 | 0.797 | 0.212 | -0.977 | -1.12 | 0.684
22 | UCUCUGGAGGGAAGCACUUUCUG | 1.47 | 1.18 | 0.444 | -0.075 | -1.99 | -0.393 | 0.317 | -1.64 | -2.09 | 1.92 | -0.501 | -0.609 | 0.306 | -2.97
23 | UGAUUGGUACGUCUGUGGGUAGA | -0.144 | -0.0408 | -0.747 | 0.535 | 1.17 | 0.569 | -2.85 | 0.161 | -4.51 | -0.0836 | -0.434 | 0.153 | 0.443 | -0.485
24 | AGGAAUGUUCCUUCUUUGCC | -1.4 | -0.309 | -2.13 | 0.683 | -0.0682 | -0.0855 | 0.63 | -0.098 | -0.469 | -0.446 | 2.32 | 0.276 | -0.812 | 2.6
25 | AACCCGUAGAUCCGAUCUUGUG | 0.969 | -0.241 | -0.496 | 0.465 | 1.14 | 0.392 | 1.06 | -0.114 | 0.552 | -0.973 | -3.27 | -0.24 | -0.247 | -0.0662
26 | AAAGUGCUUCCCUUUGGACUGU | 0.671 | -0.72 | 1.67 | 0.194 | -1.07 | -0.799 | -0.227 | -1.48 | 1.13 | 1.36 | 0.0276 | 1.36 | 0.0148 | -0.113
27 | UAGGCAGUGUCAUUAGCUGAUUG | 1.04 | -5.52 | -1.11 | 1.22 | -2.78 | -3.63 | -5.22 | 0.837 | -2.66 | 0.274 | 1.92 | -0.567 | 0.66 | -1.58
28 | AAGUGCUUCCUUUUAGAGGGUU | -0.82 | -1.25 | 0.635 | -0.113 | -0.72 | 0.896 | -0.869 | 0.457 | 0.466 | 1.07 | 0.633 | 1.62 | -1 | 0.00821
29 | UGCUGACUCCUAGUCCAGGGC | -3.34 | 0.906 | 0.322 | -1.77 | 0.123 | 0.0884 | 0.54 | 0.333 | -0.364 | 1.06 | -0.537 | 2.05 | 0.366 | -1.99
30 | AAAGUAGCUGUACCAUUUGC | 0.0379 | -0.677 | 0.57 | -1.6 | 1.14 | 0.676 | -0.314 | 0.719 | 1.58 | -0.00285 | -0.926 | -0.735 | 0.1 | 1.39
31 | AGUUAAUGAAUCCUGGAAAGU | -0.407 | -0.175 | 0.0665 | -0.441 | 0.47 | 0.0474 | 0.0217 | -0.25 | -0.406 | -0.54 | -0.662 | -0.487 | -0.194 | 0.251
32 | AAUGACACGAUCACUCCCGUUGA | -1.49 | 0.0535 | 0.139 | 0.792 | -0.032 | -0.341 | 0.235 | -0.645 | -1.98 | -0.214 | -0.699 | -0.373 | 0.759 | 0.878
33 | AAUAUUAUACAGUCAACCUCU | -1.63 | -0.324 | 0.854 | -0.762 | -0.218 | 1.48 | 0.0661 | 0 | 3.57 | -1.02 | 0.408 | -1.29 | 0.359 | 0.391
34 | AGACCCUGGUCUGCACUCUAU | 0.647 | 2.76 | 1.02 | 1.38 | 0.748 | 1.92 | 2.47 | -1.4 | -0.49 | -3.41 | -0.928 | -2.99 | -5.07 | -0.0019
